The target in test [1] is T1, recombinant full-length WRN protein (1-1432) (Homo sapiens, UniProt Q14191).
T1 construct: recombinant full-length WRN protein (1-1432)
As to the kind of experiment: WRN unwinding activity, fluorogenic 384-well assay (Example A). It counts as biochemical. To be noted: WRN unwinding activity, 4 hr; Table 2; read-out: 4 hr UNW pIC50 (converted). In short, it runs like this:
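200 pM enzyme (2× stock) preincubated with compound 4 h at ambient temperature, then 200 μM ATP and 12 nM quenched TAMRA-labelled dsDNA (2× stocks) added for 60 min; EDTA-quenched. Buffer 25 mM Tris pH 8.0, 5 mM NaCl, 2 mM MgCl2. Fluorescence at 525/598 nm; pIC50 from four-parameter fit.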

Test [2] has as its system SW48 human colorectal cancer cells (MSI-H cancer cells). As to the kind of experiment: SW48 cell viability, CellTiter-Glo, 120 hours (Example B). The note with it: Homo sapiens, SW48, 120 h, read-out: SW48 pCC50, SW48 cell viability, 120 hours incubation (converted); Table 2. On the technique in general: ATP-based viability assays read luminescence as a measure of living cells.

The structures appear in SMILES notation.

T1 sequence (Q14191 whole entry): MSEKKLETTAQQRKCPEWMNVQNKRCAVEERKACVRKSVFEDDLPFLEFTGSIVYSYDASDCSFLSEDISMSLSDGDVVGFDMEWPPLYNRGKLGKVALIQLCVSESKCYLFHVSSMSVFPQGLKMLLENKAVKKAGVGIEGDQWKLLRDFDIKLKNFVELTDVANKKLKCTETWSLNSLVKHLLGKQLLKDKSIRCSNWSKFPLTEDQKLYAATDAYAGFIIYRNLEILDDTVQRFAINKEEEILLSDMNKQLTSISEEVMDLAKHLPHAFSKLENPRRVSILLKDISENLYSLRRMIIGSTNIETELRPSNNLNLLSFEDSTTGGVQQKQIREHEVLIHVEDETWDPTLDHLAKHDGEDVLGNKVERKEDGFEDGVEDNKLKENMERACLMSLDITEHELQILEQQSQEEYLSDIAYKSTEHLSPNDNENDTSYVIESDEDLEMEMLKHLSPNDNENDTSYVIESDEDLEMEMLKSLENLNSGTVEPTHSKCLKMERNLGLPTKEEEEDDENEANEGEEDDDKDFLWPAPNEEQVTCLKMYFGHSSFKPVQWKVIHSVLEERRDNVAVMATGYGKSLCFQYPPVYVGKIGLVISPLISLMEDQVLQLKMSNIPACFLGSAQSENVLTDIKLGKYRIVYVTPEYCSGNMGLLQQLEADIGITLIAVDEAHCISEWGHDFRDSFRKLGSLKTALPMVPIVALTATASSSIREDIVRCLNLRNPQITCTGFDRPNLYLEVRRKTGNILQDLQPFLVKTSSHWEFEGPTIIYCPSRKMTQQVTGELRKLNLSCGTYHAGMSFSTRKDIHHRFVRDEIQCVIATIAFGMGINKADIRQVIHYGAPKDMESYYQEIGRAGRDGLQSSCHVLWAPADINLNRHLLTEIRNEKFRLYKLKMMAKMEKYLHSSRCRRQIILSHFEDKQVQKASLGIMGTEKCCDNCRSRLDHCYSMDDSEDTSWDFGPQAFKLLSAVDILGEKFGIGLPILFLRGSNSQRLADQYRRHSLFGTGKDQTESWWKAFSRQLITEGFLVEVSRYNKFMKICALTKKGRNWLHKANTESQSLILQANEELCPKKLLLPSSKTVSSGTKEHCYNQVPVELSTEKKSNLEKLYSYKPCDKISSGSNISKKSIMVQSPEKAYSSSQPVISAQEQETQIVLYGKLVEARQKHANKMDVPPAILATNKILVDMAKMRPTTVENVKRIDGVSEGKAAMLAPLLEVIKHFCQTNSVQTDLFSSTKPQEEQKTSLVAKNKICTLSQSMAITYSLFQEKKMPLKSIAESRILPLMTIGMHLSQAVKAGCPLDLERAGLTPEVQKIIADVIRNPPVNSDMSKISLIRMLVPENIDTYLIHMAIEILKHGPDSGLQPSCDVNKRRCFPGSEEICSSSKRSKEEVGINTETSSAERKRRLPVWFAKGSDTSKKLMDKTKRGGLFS

Regarding `Cc1nc2cc(S(=O)(=O)N(C)c3ccc([C@H]4C[C@H](N5CCC(F)(F)C5)C[C@@H](C(=O)Nc5ccc(C(F)(F)F)cc5F)[C@@H]4C(=O)O)cc3)ccc2n1C` (stereo in doubt) [Example 304, rel-(1R,2R,4S,6S)-4-(3,3-difluoropyrrolidin-1-yl)-2-((2-fluoro-4-(trifluoromethyl)phenyl)carbamoyl)-6-(4-((N,1,2-trimethyl-1H-benzo[d]imidazole)-5-sulfonamido)phenyl)cyclohexane-1-carboxylic acid], in test [1], the IC50 was 15.8 nM. The CC50 in test [2] was 12.6 µM.

As to `Cc1nc2cc(S(=O)(=O)N(C)c3ccc([C@@H]4C[C@H](OC(C)C)C[C@H](C(=O)Nc5ccc(C(F)(F)F)cc5F)[C@H]4C(=O)O)cc3)ccc2n1C` (stereo in doubt) [Example 312, rel-(1R,2R,4R,6S)-2-((2-fluoro-4-(trifluoromethyl)phenyl)carbamoyl)-4-isopropoxy-6-(4-((N,1,2-trimethyl-1H-benzo[d]imidazole)-5-sulfonamido)phenyl)cyclohexane-1-carboxylic acid], in test [1], the IC50 was 158 nM. Also, the CC50 in test [2] is 12.6 µM.

Take `Cc1nc2cc(S(=O)(=O)N(C)c3ccc([C@@H]4C[C@H](OCC5CC5)C[C@H](C(=O)Nc5ccc(C(F)(F)F)cc5F)[C@H]4C(=O)O)cc3)ccc2n1C` (stereo in doubt) [Example 313, rel-(1R,2R,4R,6S)-4-(cyclopropylmethoxy)-2-((2-fluoro-4-(trifluoromethyl)phenyl)carbamoyl)-6-(4-((N,1,2-trimethyl-1H-benzo[d]imidazole)-5-sulfonamido)phenyl)cyclohexane-1-carboxylic acid]: in test [1], the IC50 is 251 nM. Moreover, the CC50 in test [2] is 20 µM.

`Cc1nc2cc(S(=O)(=O)N(C)c3ccc([C@@H]4C[C@H](OC[C@H]5CCOC5)C[C@H](C(=O)Nc5ccc(C(F)(F)F)cc5F)[C@H]4C(=O)O)cc3)ccc2n1C` (stereo in doubt) [Example 318, (1R*,2R*,4R*,6S*)-2-((2-fluoro-4-(trifluoromethyl)phenyl)carbamoyl)-4-(((S)-tetrahydrofuran-3-yl)methoxy)-6-(4-((N,1,2-trimethyl-1H-benzo[d]imidazole)-5-sulfonamido)phenyl)cyclohexane-1-carboxylic acid]: the IC50 in test [1] is 200 nM. Moreover, the CC50 in test [2] was 12.6 µM.

Consider `Cc1nc2cc(S(=O)(=O)N(C)c3ccc([C@@H]4C[C@H](OC[C@@H]5CCOC5)C[C@H](C(=O)Nc5ccc(C(F)(F)F)cc5F)[C@H]4C(=O)O)cc3)ccc2n1C` (stereo in doubt) [Example 319, (1R*,2R*,4R*,6S*)-2-((2-fluoro-4-(trifluoromethyl)phenyl)carbamoyl)-4-(((R)-tetrahydrofuran-3-yl)methoxy)-6-(4-((N,1,2-trimethyl-1H-benzo[d]imidazole)-5-sulfonamido)phenyl)cyclohexane-1-carboxylic acid], for which the IC50 in test [1] is 316 nM. Further, the CC50 in test [2] was 12.6 µM.

As for `Cc1nc2cc(S(=O)(=O)N(C)c3ccc([C@@H]4C[C@H](OC[C@H]5COCCO5)C[C@H](C(=O)Nc5ccc(C(F)(F)F)cc5F)[C@H]4C(=O)O)cc3)ccc2n1C` (stereo in doubt) [Example 328, (1R*,2R*,4R*,6S*)-4-(((R)-1,4-dioxan-2-yl)methoxy)-2-((2-fluoro-4-(trifluoromethyl)phenyl)carbamoyl)-6-(4-((N,1,2-trimethyl-1H-benzo[d]imidazole)-5-sulfonamido)phenyl)cyclohexane-1-carboxylic acid], the IC50 in test [1] is 126 nM. Besides, the CC50 in test [2] was 15.8 µM.

For `Cc1nc2cc(S(=O)(=O)N(C)c3ccc([C@@H]4C[C@H](N5CCC[C@@H](F)C5)C[C@H](C(=O)Nc5ccc(C(F)(F)F)cc5F)[C@H]4C(=O)O)cc3)ccc2n1C` (stereo in doubt) [Example 345, rel-(1R*,2R*,4R*,6S*)-2-((2-fluoro-4-(trifluoromethyl)phenyl)carbamoyl)-4-((R)-3-fluoropiperidin-1-yl)-6-(4-((N,1,2-trimethyl-1H-benzo[d]imidazole)-5-sulfonamido)phenyl)cyclohexane-1-carboxylic acid], the IC50 in test [1] was 398 nM. For the same compound, the CC50 in test [2] was 12.6 µM.

For the compound `Cc1nc2cc(S(=O)(=O)N(C)c3ccc([C@@H]4C[C@H](OCC5CCOCC5)C[C@H](C(=O)Nc5ccc(C(F)(F)F)cc5F)[C@H]4C(=O)O)cc3)ccc2n1C` (stereo in doubt) [Example 354, rel-(1R,2R,4R,6S)-2-((2-fluoro-4-(trifluoromethyl)phenyl)carbamoyl)-4-((tetrahydro-2H-pyran-4-yl)methoxy)-6-(4-((N,1,2-trimethyl-1H-benzo[d]imidazole)-5-sulfonamido)phenyl)cyclohexane-1-carboxylic acid], in test [1], the IC50 is 1580 nM. For the same compound, in test [2], the CC50 is 20 µM.

As for `Cc1nc2cc(S(=O)(=O)N(C)c3ccc([C@@H]4C[C@H](OCC5(C)COC5)C[C@H](C(=O)Nc5ccc(C(F)(F)F)cc5F)[C@H]4C(=O)O)cc3)ccc2n1C` (stereo in doubt) [Example 366, rel-(1R,2R,4R,6S)-2-((2-fluoro-4-(trifluoromethyl)phenyl)carbamoyl)-4-((3-methyloxetan-3-yl)methoxy)-6-(4-((N,1,2-trimethyl-1H-benzo[d]imidazole)-5-sulfonamido)phenyl)cyclohexane-1-carboxylic acid], the IC50 in test [1] was 126 nM. Moreover, the CC50 in test [2] is 15.8 µM.

`Cc1nc2cc(S(=O)(=O)N(C)c3ccc([C@@H]4C[C@@H](N5CC[C@H](F)C5)C[C@H](C(=O)Nc5ccc(C(F)(F)F)cc5F)[C@H]4C(=O)O)cc3)ccc2n1C` (stereo in doubt) [Example 379, rel-(1R*,2R*,4S*,6S*)-2-((2-fluoro-4-(trifluoromethyl)phenyl)carbamoyl)-4-((S)-3-fluoropyrrolidin-1-yl)-6-(4-((N,1,2-trimethyl-1H-benzo[d]imidazole)-5-sulfonamido)phenyl)cyclohexane-1-carboxylic acid]: the IC50 in test [1] is 501 nM. For the same compound, the CC50 in test [2] was 20 µM.

Regarding `Cc1nc2cc(S(=O)(=O)N(C)c3ccc([C@@H]4C[C@@H](N5CC[C@@H](F)C5)C[C@H](C(=O)Nc5ccc(C(F)(F)F)cc5F)[C@H]4C(=O)O)cc3)ccc2n1C` (stereo in doubt) [Example 384, rel-(1R*,2R*,4S*,6S*)-2-((2-fluoro-4-(trifluoromethyl)phenyl)carbamoyl)-4-((R)-3-fluoropyrrolidin-1-yl)-6-(4-((N,1,2-trimethyl-1H-benzo[d]imidazole)-5-sulfonamido)phenyl)cyclohexane-1-carboxylic acid], the IC50 in test [1] is 398 nM. In addition, the CC50 in test [2] is 25.1 µM.

In the case of `Cc1nc2cc(S(=O)(=O)N(C)c3ccc([C@@H]4C[C@@]5(CCCO5)C[C@H](C(=O)Nc5ccc(C(F)(F)F)cc5F)[C@H]4C(=O)O)cc3)ccc2n1C` (stereo in doubt) [Example 387, rel-(5R,7R,8R,9S)-7-((2-fluoro-4-(trifluoromethyl)phenyl)carbamoyl)-9-(4-((N,1,2-trimethyl-1H-benzo[d]imidazole)-5-sulfonamido)phenyl)-1-oxaspiro[4.5]decane-8-carboxylic acid], the IC50 in test [1] is 63.1 nM. In addition, the CC50 in test [2] is 10 µM.

Consider `O=C(O)[C@@H]1[C@@H](c2ccc(-c3cccc4[nH]ncc34)cc2)CCC[C@H]1C(=O)Nc1ccc(C(F)(F)F)cc1F` [Example 1, (1R,2S,6R)-2-(4-(1H-indazol-4-yl)phenyl)-6-((2-fluoro-4-(trifluoromethyl)phenyl)carbamoyl)cyclohexane-1-carboxylic acid], for which, in test [1], the IC50 was 1000 nM. Further, the CC50 in test [2] is 10 µM.

Turning to `O=C(O)[C@@H]1[C@@H](c2ccc(-c3cccc4cnccc34)cc2)CCC[C@H]1C(=O)Nc1ccc(C(F)(F)F)cc1F` [Example 2, (1R,2R,6S)-2-((2-fluoro-4-(trifluoromethyl)phenyl)carbamoyl)-6-(4-(isoquinolin-5-yl)phenyl)cyclohexane-1-carboxylic acid], in test [1], the IC50 was 1260 nM. The CC50 in test [2] was 12.6 µM.

Turning to `Cn1nccc1-c1ccc([C@H]2CCC[C@@H](C(=O)Nc3ccc(C(F)(F)F)cc3F)[C@@H]2C(=O)O)cc1` [Example 3, (1R,2R,6S)-2-((2-fluoro-4-(trifluoromethyl)phenyl)carbamoyl)-6-(4-(1-methyl-1H-pyrazol-5-yl)phenyl)cyclohexane-1-carboxylic acid], the IC50 in test [1] is 3.98 nM. Besides, the CC50 in test [2] was 10 µM.

With `O=C(O)[C@@H]1[C@@H](c2ccc(-c3cncnc3)cc2)CCC[C@H]1C(=O)Nc1ccc(C(F)(F)F)cc1F` [Example 6, (1R,2R,6S)-2-((2-fluoro-4-(trifluoromethyl)phenyl)carbamoyl)-6-(4-(pyrimidin-5-yl)phenyl)cyclohexane-1-carboxylic acid], the IC50 in test [1] was 6.31 nM. Moreover, in test [2], the CC50 was 10 µM.

As for `O=C(O)[C@@H]1[C@@H](c2ccc(-c3cccnc3)cc2)CCC[C@H]1C(=O)Nc1ccc(C(F)(F)F)cc1F` [Example 8, (1R,2R,6S)-2-((2-fluoro-4-(trifluoromethyl)phenyl)carbamoyl)-6-(4-(pyridin-3-yl)phenyl)cyclohexane-1-carboxylic acid], in test [1], the IC50 is 3.98 nM. Besides, the CC50 in test [2] was 7.94 µM.

Take `O=C(O)[C@@H]1[C@@H](c2ccc(-c3ccco3)cc2)CCC[C@H]1C(=O)Nc1ccc(C(F)(F)F)cc1F` [Example 9, (1R,2R,6S)-2-((2-fluoro-4-(trifluoromethyl)phenyl)carbamoyl)-6-(4-(furan-2-yl)phenyl)cyclohexane-1-carboxylic acid]: the IC50 in test [1] is 794 nM. Moreover, in test [2], the CC50 was 25.1 µM.

(Values after patent US12662451B2, “Chemical compounds and uses thereof” (GLAXOSMITHKLINE INTELLECTUAL PROPERTY (NO.4) LIMITED, priority 2023, dated 2026).)
